# Experimental data: patent US20210181182A1, “METHOD FOR IDENTIFICATION OF PERTURBAGENS OF PARTICULAR BIOLOGICAL PROCESSES AND CELL SYSTEMS WITHIN LIVING CELLS” (priority 2018, published 2021)
# Counter-ions that a name gives are not always drawn. Marks after values point to notes of the source that are not given here.
# System: mitochondrial electron transport chain (mETC)
# Test: FACTORIAL assay: similarity of TFAP to the consensus (invariant) mETC TFAP
# Type: cell-based, human
# Conditions: 24 h
row,SMILES,"Pearson correlation with the mETC TFAP, r"
1,"Cc1ccc(-c2cc(C(F)(F)F)nn2-c2ccc(S(N)(=O)=O)cc2)cc1 [Celecoxib, reference compound]",0.883
2,"CN(C)CCCN1c2ccccc2CCc2ccc(Cl)cc21 [Clomipramine hydrochloride, reference compound]",0.806
3,"CC/C(=C(/CC)c1ccc(O)cc1)c1ccc(O)cc1 [Diethylstilbestrol, reference compound]",0.812

# Same assay, conditions: HepG2, 24 h incubation; each value at the concentration [uM]
row,SMILES,"Pearson correlation with the mETC TFAP, r"
1,CCc1cc(Cc2cc(CC)cc(C(C)(C)C)c2O)c(O)c(C(C)(C)C)c1,0.827
2,"O=S(=O)(c1ccc(Cl)cc1)c1ccc(Cl)cc1 [4,4′-Dichlorodiphenyl sulfone]",0.810
3,COP(=S)(OC)SCn1nnc2ccccc2c1=O [Azinphos-methyl],0.823
4,CO/C=C(/C(=O)OC)c1ccccc1Oc1cc(Oc2ccccc2C#N)ncn1 [Azoxystrobin],0.894
5,CCCCC(CC)COP(=O)(O)OCC(CC)CCCC (stereo not shown) [Bis(2-ethylhexyl) phosphate],0.838
6,CCC(C)(c1ccc(O)cc1)c1ccc(O)cc1 [Bisphenol B],0.861
7,Oc1ccc(Cc2ccc(O)cc2)cc1 [Bisphenol F],0.835
8,CCOC(=O)[C@@H](C)Oc1ccc(Oc2nc3ccc(Cl)cc3o2)cc1 [Fenoxaprop-P-ethyl],0.827
9,COC(=O)N(C(=O)N1CO[C@@]2(C(=O)OC)Cc3cc(Cl)ccc3C2=N1)c1ccc(OC(F)(F)F)cc1 [Indoxacarb],0.887

# System: mitochondria membrane potential
# Test: not given
# Conditions: HepG2, 1-hour incubation at concentrations below 60 μM; cited from earlier work
row,SMILES,MMP assay hitCall
1,CCc1cc(Cc2cc(CC)cc(C(C)(C)C)c2O)c(O)c(C(C)(C)C)c1,1
2,"O=S(=O)(c1ccc(Cl)cc1)c1ccc(Cl)cc1 [4,4′-Dichlorodiphenyl sulfone]",1
3,COP(=S)(OC)SCn1nnc2ccccc2c1=O [Azinphos-methyl],0*
4,CO/C=C(/C(=O)OC)c1ccccc1Oc1cc(Oc2ccccc2C#N)ncn1 [Azoxystrobin],0*
5,CCCCC(CC)COP(=O)(O)OCC(CC)CCCC (stereo not shown) [Bis(2-ethylhexyl) phosphate],1
6,CCC(C)(c1ccc(O)cc1)c1ccc(O)cc1 [Bisphenol B],1
7,Oc1ccc(Cc2ccc(O)cc2)cc1 [Bisphenol F],1
8,"CN(C)CCCN1c2ccccc2CCc2ccc(Cl)cc21 [Clomipramine hydrochloride, reference compound]",0*
9,"CC/C(=C(/CC)c1ccc(O)cc1)c1ccc(O)cc1 [Diethylstilbestrol, reference compound]",1
10,CCOC(=O)[C@@H](C)Oc1ccc(Oc2nc3ccc(Cl)cc3o2)cc1 [Fenoxaprop-P-ethyl],0
11,CNC(=O)Oc1cccc(N=CN(C)C)c1 [Formetanate hydrochloride],0
12,C[C@@H]1[C@@H](c2ccc(Cl)cc2)SC(=O)N1C(=O)NC1CCCCC1 [Hexythiazox],1
13,CC(C)(O)C(=O)Nc1ccc([N+](=O)[O-])c(C(F)(F)F)c1 [Hydroxyflutamide],1
14,COC(=O)N(C(=O)N1CO[C@@]2(C(=O)OC)Cc3cc(Cl)ccc3C2=N1)c1ccc(OC(F)(F)F)cc1 [Indoxacarb],1
15,N#Cc1cc(I)c(O)c(I)c1 [Ioxynil],1
16,CC(C)C1CCC(Cc2ccc(Cl)cc2)C1(O)Cn1cncn1 (stereo not shown) [Ipconazole],1
17,O=c1c(O)c(-c2ccc(O)cc2)oc2cc(O)cc(O)c12 [Kaempferol],1
18,"CC(=O)N1CCN(c2ccc(OCC3COC(Cn4ccnc4)(c4ccc(Cl)cc4Cl)O3)cc2)CC1 (stereo not shown) [Ketoconazole, reference compound]",1
19,CO/N=C(/C(=O)OC)c1ccccc1COc1ccccc1C [Kresoxim-methyl],0*
20,CON(C)C(=O)Nc1ccc(Cl)c(Cl)c1 [Linuron],1
21,"CCOC(=O)N1CCC(=C2c3ccc(Cl)cc3CCc3cccnc32)CC1 [Loratadine, reference compound]",1
22,"CC[C@H](C)C(=O)O[C@H]1C[C@@H](C)C=C2C=C[C@H](C)[C@H](CC[C@@H]3C[C@@H](O)CC(=O)O3)[C@H]21 [Lovastatin, reference compound]",1
23,CCOC(=O)CC(SP(=S)(OC)OC)C(=O)OCC (stereo not shown) [Malathion],0*
24,Cc1ccccc1C(=O)Nc1cccc(OC(C)C)c1 [Mepronil],1
25,CC1(C)CCC(Cc2ccc(Cl)cc2)C1(O)Cn1cncn1 (stereo not shown) [Metconazole],1

row,SMILES,MMP assay hitCall
1,"C1N2CN3CN1CN(C2)C3 [Methenamine, reference compound]",0
2,CCCCCC#CC(=O)OC [Methyl 2-octynoate],0
3,COC(=O)/C=C(\C)CCC=C(C)C [Methyl geranate],0
4,CN=C=S [Methyl isothiocyanate],0
5,CN(C)c1ccc(/N=N/c2ccccc2C(=O)O)cc1 [Methyl red],0
6,CC(=O)/C=C/c1ccccc1 [Methyl trans-styryl ketone],0
7,CCc1cccc(C)c1N(C(=O)CCl)C(C)COC (stereo not shown) [Metolachlor],0
8,COC(=O)c1ccccc1S(=O)(=O)NC(=O)Nc1nc(C)nc(OC)n1 [Metsulfuron-methyl],0
9,"CC#C[C@]1(O)CC[C@H]2[C@@H]3CCC4=CC(=O)CCC4=C3[C@@H](c3ccc(N(C)C)cc3)C[C@@]21C [Mifepristone, reference compound]",1
10,COc1ccc(S(=O)(=O)N2C(=O)[C@@](c3ccccc3OC)(N3C[C@H](O)C[C@H]3C(=O)N(C)C)c3cc(Cl)ccc32)c(OC)c1 [Nelivaptan],0
11,"CC1(C)NC(=O)N(c2ccc([N+](=O)[O-])c(C(F)(F)F)c2)C1=O [Nilutamide, reference compound]",0*
12,CNc1cnn(-c2cccc(C(F)(F)F)c2)c(=O)c1Cl [Norflurazon],0
13,O=C(NC(=O)c1c(F)cccc1F)Nc1ccc(OC(F)(F)C(F)OC(F)(F)F)c(Cl)c1 (stereo not shown) [Novaluron],0
14,CC(C)(C)CC(C)(C)c1ccc(O)c(-n2nc3ccccc3n2)c1 [Octrizole],1
15,CC(C)Oc1cc(-n2nc(C(C)(C)C)oc2=O)c(Cl)cc1Cl [Oxadiazon],1
16,CC1=C(C(=O)Nc2ccccc2)S(=O)(=O)CCO1 [Oxycarboxin],0
17,CCOc1cc(Oc2ccc(C(F)(F)F)cc2Cl)ccc1[N+](=O)[O-] [Oxyfluorfen],1
18,CCOP(=S)(OCC)Oc1ccc([N+](=O)[O-])cc1 [Parathion],1
19,Oc1c(Cl)c(Cl)c(Cl)c(Cl)c1Cl [Pentachlorophenol],1
20,"Nc1ccc(/N=N/c2ccccc2)c(N)n1 [Phenazopyridine hydrochloride, reference compound]",1
21,CCOP(=S)(OCC)SCSCC [Phorate],0*
22,CCOP(=S)(OCC)SCn1c(=O)oc2cc(Cl)ccc21 [Phosalone],1
23,C#CCC1=C(C)C(OC(=O)C2C(C=C(C)C)C2(C)C)CC1=O (stereo not shown) [Prallethrin],1
24,CCCN(CCOc1c(Cl)cc(Cl)cc1Cl)C(=O)n1ccnc1 [Prochloraz],0*
25,CCCSP(=O)(OCC)Oc1ccc(Br)cc1Cl (stereo not shown) [Profenofos],1

row,SMILES,MMP assay hitCall
1,CCC(=O)Nc1ccc(Cl)c(Cl)c1 [Propanil],1
2,C#CCOS(=O)OC1CCCCC1Oc1ccc(C(C)(C)C)cc1 (stereo not shown) [Propargite],1
3,C#CC(C)(C)NC(=O)c1cc(Cl)cc(Cl)c1 [Propyzamide],0
4,COC(=O)N(OC)c1ccccc1COc1ccn(-c2ccc(Cl)cc2)n1 [Pyraclostrobin],1
5,"CC(C)(C)c1ccc(CSc2cnn(C(C)(C)C)c(=O)c2Cl)cc1 [Pyridaben, reference compound]",1
6,Cc1cc(C)nc(Nc2ccccc2)n1 [Pyrimethanil],0
7,CC(COc1ccc(Oc2ccccc2)cc1)Oc1ccccn1 (stereo not shown) [Pyriproxyfen],0
8,CC(C)=CC1C(C(=O)OCc2coc(Cc3ccccc3)c2)C1(C)C (stereo not shown) [Resmethrin],1
9,"C=C(C)[C@H]1Cc2c(ccc3c2O[C@@H]2COc4cc(OC)c(OC)cc4[C@@H]2C3=O)O1 [Rotenone, reference compound]",1
10,CCCN(CC)CC1COC2(CCC(C(C)(C)C)CC2)O1 (stereo not shown) [Spiroxamine],0
11,CO[C@@H]1[C@H](OC(=O)NC(=O)CCl)CC[C@]2(CO2)[C@H]1[C@@]1(C)O[C@@H]1CC=C(C)C [TNP-470],0
12,CCCCCCCCCCCCCC[N+](C)(C)C [Tetradonium bromide],0
13,CC(C)=CC1C(C(=O)OCN2C(=O)C3=C(CCCC3)C2=O)C1(C)C (stereo not shown) [Tetramethrin],1
14,COC(=O)c1c(C(F)F)nc(C(F)(F)F)c(C2=NCCS2)c1CC(C)C [Thiazopyr],0
15,COC(=O)NC(=S)Nc1ccccc1NC(=S)NC(=O)OC [Thiophanate-methyl],0*
16,"O=C(O)Cc1cc(I)c(Oc2ccc(O)c(I)c2)c(I)c1 [Tiratricol, reference compound]",0
17,"Cc1ccc(S(=O)(=O)NC(=O)NN2CCCCCC2)cc1 [Tolazamide, reference compound]",0
18,CC(C)(C)C(=O)C(Oc1ccc(Cl)cc1)n1cncn1 (stereo not shown) [Triadimefon],0
19,CC(C)(C)C(O)C(Oc1ccc(Cl)cc1)n1cncn1 (stereo not shown) [Triadimenol],0
20,COP(=O)(OC)C(O)C(Cl)(Cl)Cl (stereo not shown) [Trichlorfon],0
21,O=C(Nc1ccc(Cl)cc1)Nc1ccc(Cl)c(Cl)c1 [Triclocarban],1
22,Oc1cc(Cl)ccc1Oc1ccc(Cl)cc1Cl [Triclosan],1
23,CON=C(C(=O)OC)c1ccccc1CON=C(C)c1cccc(C(F)(F)F)c1 [Trifloxystrobin],1
24,O=P(Oc1ccccc1)(Oc1ccccc1)Oc1ccccc1 [Triphenyl phosphate],1

# Same assay, conditions: cited from earlier work
row,SMILES,MMP assay hitCall
1,Oc1c(Cl)cc(Cl)c(Cl)c1Cc1c(O)c(Cl)cc(Cl)c1Cl [Hexachlorophene],1
2,"CN(C)c1ccc(N=O)cc1 [N,N-Dimethyl-4-nitrosoaniline]",0
3,CC(C)Nc1ccc(Nc2ccccc2)cc1 [N-Isopropyl-N′-phenyl-p-phenylenediamine],0
4,CCC[CH2][Sn]([Cl])([CH2]CCC)[CH2]CCC [Tributyltin chloride],1
5,"O=P(OCC(Br)CBr)(OCC(Br)CBr)OCC(Br)CBr (stereo not shown) [Tris(2,3-dibromopropyl) phosphate]",1
